The Kd is a measure of binding affinity in units of concentration. The term inhibition denotes the drop in the measured response relative to a control, in per cent.

Assay [1] concerns the target T1, Indoleamine 2,3-dioxygenase 1 (Homo sapiens, UniProt P14902). The assay is described as follows: Binding affinity to recombinant ferrous state of IDO1 (unknown origin) expressed in Escherichia coli assessed as dissociation constant incubated for 30 mins by UV-Visible spectrophotometric method.
Target sequence in this assay (P14902 whole entry): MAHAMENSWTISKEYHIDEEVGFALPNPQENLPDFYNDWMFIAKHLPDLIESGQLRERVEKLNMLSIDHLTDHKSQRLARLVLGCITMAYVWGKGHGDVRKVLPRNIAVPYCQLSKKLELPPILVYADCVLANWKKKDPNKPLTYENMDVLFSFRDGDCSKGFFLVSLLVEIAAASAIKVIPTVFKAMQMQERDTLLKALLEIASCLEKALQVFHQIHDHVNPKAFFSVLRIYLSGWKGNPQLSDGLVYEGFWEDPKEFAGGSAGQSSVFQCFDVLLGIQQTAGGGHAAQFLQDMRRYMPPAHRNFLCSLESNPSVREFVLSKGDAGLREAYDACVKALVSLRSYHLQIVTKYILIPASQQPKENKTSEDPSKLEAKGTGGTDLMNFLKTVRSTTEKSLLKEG
In assay [2] the target is T1, Indoleamine 2,3-dioxygenase 1. Briefly: Binding affinity to recombinant ferric state of IDO1 (unknown origin) expressed in Escherichia coli assessed as dissociation constant incubated for 30 mins by UV-Visible spectrophotometric method.
Target sequence in this assay (P14902 whole entry): as above
For assay [3] the target is unchanged. The assay is described as follows: Inhibition of recombinant IDO1 (unknown origin) expressed in Escherichia coli at 10 uM incubated for 30 mins by methylene blue dye based UV-Visible spectrophotometric method relative to control.
Target sequence in this assay (P14902 whole entry, looked up): as the sequence (P14902 whole entry) above
Assay [4] has as its target Indoleamine 2,3-dioxygenase 1 (Homo sapiens, UniProt P14902, C129Y). The assay is described as follows: Binding affinity to recombinant ferrous state of IDO1 C129Y mutant (unknown origin) expressed in Escherichia coli assessed as dissociation constant incubated for 30 mins by UV-Visible spectrophotometric method.
Assay [5] has as its system Indoleamine 2,3-dioxygenase 1 (Homo sapiens), P14902 [C129Y]. Briefly: Inhibition of recombinant IDO1 C129Y mutant (unknown origin) expressed in Escherichia coli at 10 uM incubated for 30 mins by methylene blue dye based UV-Visible spectrophotometric method relative to control.

Sequence of Indoleamine 2,3-dioxygenase 1 (Homo sapiens), P14902 [C129Y] (P14902 whole entry C129Y): as the sequence (P14902 whole entry) above, with C129Y counted along it
Sequence of Indoleamine 2,3-dioxygenase 1 (Homo sapiens, UniProt P14902, C129Y) (P14902 whole entry C129Y): as the sequence (P14902 whole entry) above, with C129Y counted along it

Turning to `Cc1cc([Si](C)(C)C)c2cn[nH]c2c1`, the dissociation constant Kd in assay [1] is 1.7 µM; in assay [2] it was 2.5 µM. For the same molecule, the inhibition in assay [3] came out at 50%.
With `C[Si](C)(C)c1cccc2[nH]ncc12`, the Kd in assay [1] is 43 µM; in assay [2], 150 µM. In addition, in assay [3], the inhibition amounted to 7.2%.
`c1ccc2[nH]ncc2c1`: in assay [3], the inhibition worked out at 1%.
Turning to `OC(Cc1ccccc1)c1cc(C2CC2)cc2[nH]ncc12` (racemic), the Kd turned out to be 28 µM in assay [4] and 1.2 µM in assay [1]. The inhibition in assay [3] is 62%; in assay [5], 20%.
`OC(Cc1ccccc1)c1cc(-c2ccccc2)cc2[nH]ncc12` (racemic): the Kd in assay [1] turned out to be 53 µM. Moreover, the results for the inhibition in assay [3] and in assay [5] were 4% and 14%, respectively.
Take `OC(Cc1ccccc1)c1cc(Br)cc2[nH]ncc12` (racemic): the equilibrium dissociation constant (Kd) in assay [4] amounted to 2.2 µM; in assay [1] it was 0.14 µM; in assay [2], 0.6 µM. Moreover, the inhibition was 90% in assay [3] and 23% in assay [5].
In the same order, the values of `CCc1cc(C(O)Cc2ccccc2)c2cn[nH]c2c1` (racemic) are 44 µM, 0.74 µM, 1.1 µM, 70% and 18%.
In the same order, the values of `OC(Cc1ccccc1)c1cccc2[nH]ncc12` (racemic) are 66 µM, 7.9 µM, 31 µM, 13% and 14%.
The matching figures for `C#Cc1cc(C(O)Cc2ccccc2)c2cn[nH]c2c1` (racemic): 94 µM, 1.3 µM, 7.4 µM, 32% and 12%.
For the molecule `Cc1cc(C(O)Cc2ccccc2)c2cn[nH]c2c1` (racemic), the Kd is 27 µM in assay [4], 0.47 µM in assay [1] and 1.2 µM in assay [2]. For the same molecule, the inhibition came to 76% in assay [3] and 18% in assay [5].

The record behind these values is ChEMBL document CHEMBL4396936 (Bioorg Med Chem Lett, 2019).
